Consider five molecules from ChEMBL document CHEMBL4385658, “Inhibition of β-amyloid-induced neurotoxicity by planar analogues of procyanidin B3” (Bioorg Med Chem Lett, 2019).

Data set [1] deals with Amyloid-beta precursor protein (Homo sapiens) (UniProt P05067). Put plainly: Inhibition of Amyloid beta (1 to 42) (unknown origin)-induced cytotoxicity in human SH-SY5Y cells assessed as increase in cell viability incubated for 48 hrs by WST8 assay. Format: cell-based. For orientation: Tetrazolium dyes change colour on reduction, which living cells bring about.
Sequence of Amyloid-beta precursor protein (Homo sapiens) (P05067 whole entry): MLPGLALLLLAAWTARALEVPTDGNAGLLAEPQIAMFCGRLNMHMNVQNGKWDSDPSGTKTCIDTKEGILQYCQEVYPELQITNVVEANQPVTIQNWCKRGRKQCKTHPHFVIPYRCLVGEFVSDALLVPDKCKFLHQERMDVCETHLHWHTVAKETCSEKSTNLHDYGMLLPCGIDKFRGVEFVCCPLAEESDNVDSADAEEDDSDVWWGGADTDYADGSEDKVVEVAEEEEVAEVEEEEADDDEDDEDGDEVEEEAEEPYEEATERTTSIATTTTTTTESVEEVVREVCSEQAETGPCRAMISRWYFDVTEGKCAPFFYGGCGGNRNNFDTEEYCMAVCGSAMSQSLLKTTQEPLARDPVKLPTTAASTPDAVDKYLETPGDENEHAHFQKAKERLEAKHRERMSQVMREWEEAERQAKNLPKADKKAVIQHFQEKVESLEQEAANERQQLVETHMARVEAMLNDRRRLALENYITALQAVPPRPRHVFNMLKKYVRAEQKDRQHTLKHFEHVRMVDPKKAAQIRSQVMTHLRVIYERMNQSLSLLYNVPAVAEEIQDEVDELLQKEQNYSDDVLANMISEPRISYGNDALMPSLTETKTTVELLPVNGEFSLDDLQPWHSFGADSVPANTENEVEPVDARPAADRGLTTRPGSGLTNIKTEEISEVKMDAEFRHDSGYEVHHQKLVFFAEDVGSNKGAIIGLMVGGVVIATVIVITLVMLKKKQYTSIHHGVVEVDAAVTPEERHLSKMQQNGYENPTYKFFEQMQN
The subject of another data set is SH-SY5Y. Put plainly: Cytotoxicity in human SH-SY5Y cells assessed as reduction in cell viability at 0.1 to 1000 nM incubated for 48 hrs by WST8 assay. Format: cell-based. The note with it: 1 µM.
Data set [2] addresses Amyloid-beta precursor protein (Homo sapiens) (UniProt P05067). Put plainly: Inhibition of Amyloid beta (1 to 42) (unknown origin) self aggregation at 20 uM incubated for 12 hrs by thioflavin T assay.
Data set [3] shares this target. Kind of data set: Inhibition of Amyloid beta (1 to 42) (unknown origin)-induced cytotoxicity in human SH-SY5Y cells assessed as increase in cell viability at 40 uM incubated for 48 hrs by WST8 assay. Format: cell-based.
Data set [4] shares this target. Kind of data set: Inhibition of Amyloid beta (1 to 42) (unknown origin) fibril formation assessed as reduction in thickness of fibrils at 20 uM incubated for 48 hrs by transmission-type electron microscopy.
Data set [5] shares this target. Put plainly: Inhibition of Amyloid beta (1 to 42) (unknown origin) fibril formation assessed as reduction in number of fibrils at 20 uM incubated for 48 hrs by transmission-type electron microscopy.
For data set [6] the target is unchanged. Put plainly: Inhibition of Amyloid beta (1 to 42) (unknown origin)-induced cytotoxicity in human SH-SY5Y cells assessed as increase in cell viability at 20 uM incubated for 48 hrs by WST8 assay. Format: cell-based.
Data set [7] shares this target. Put plainly: Inhibition of Amyloid beta (1 to 42) (unknown origin) self aggregation assessed as decrease in negative maximum of CD spectrum of amyloid beta (1-42) incubated for 4 hrs by CD spectroscopy.

Activity calls are given as the source filed them. No cut-off for these calls is given here.

The term inhibition denotes how much of the control response was suppressed. For `Oc1cc(O)c2c(c1)O[C@H](c1ccc(O)c(O)c1)[C@@H](O)[C@@H]2c1c(O)cc(O)c2c1O[C@H](c1ccc(O)c(O)c1)[C@@H](O)C2`, the inhibition result is “Dose-dependent effect” in data set [1] and 100% in data set [3]. Further, the Activity entry with SH-SY5Y was “Non-Toxic”. In data set [2], the inhibition result is “Active”.
The matching figures for `CC1(C)O[C@H]2Cc3c(O)cc(O)c([C@@H]4c5c(O)cc(O)cc5O[C@H](c5ccc(O)c(O)c5)[C@H]4O)c3O[C@@H]2c2cc(O)c(O)cc21`: “Dose-dependent effect”, 100%, “Non-Toxic” and “Active”.
On to `CC1(C)O[C@H]2[C@H](c3c(O)cc(O)c4c3O[C@@H]3c5cc(O)c(O)cc5C(C)(C)O[C@H]3C4)c3c(O)cc(O)cc3O[C@@H]2c2cc(O)c(O)cc21`, for which the inhibition entry in data set [4], in data set [5], in data set [2] and in data set [7] was “Active” throughout. Also, the results for the inhibition result in data set [1] and in data set [6] were “Dose-dependent effect” and 100%, respectively. For the same molecule, the Activity result with SH-SY5Y is recorded as “Non-Toxic”.
`Oc1cc(O)c2c(c1)O[C@H](c1ccc(O)c(O)c1)[C@@H](O)C2`: in data set [2], the inhibition result is “Active”.
As for `CC1(C)O[C@H]2Cc3c(O)cc(O)cc3O[C@@H]2c2cc(O)c(O)cc21`, the inhibition result in data set [2] was “Active”.
